From patent publication US11046699B2, “Pyrazolo-pyrimidin-amino-cycloalkyl compounds and their therapeutic uses” (RAPT THERAPEUTICS, INC., priority 2018, dated 2021) come the findings set out here.

pIC50: −log10 of the molar value.

In the experiment the target is GCN2 (Homo sapiens, UniProt Q9P2K8). Kind of experiment: GCN2 enzymatic endpoint assay: phosphorylation of GFP-eIF2α measured by TR-FRET (Lanthascreen). It is filed as biochemical. As to conditions: tested as described in Example 77; compound and/or hydrochloride, dihydrochloride or trifluoroacetic acid salt; read-out: IC 50 Activity. In outline: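 Endpoint kinase reaction with 2 μM ATP and 80 nM GFP-labelled eIF2α substrate, run at room temperature for 90 min, then stopped with EDTA. Phospho-substrate detected by terbium-antibody TR-FRET, activity taken as the 520/495 nm emission ratio.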
Sequence of GCN2 (Q9P2K8 whole entry): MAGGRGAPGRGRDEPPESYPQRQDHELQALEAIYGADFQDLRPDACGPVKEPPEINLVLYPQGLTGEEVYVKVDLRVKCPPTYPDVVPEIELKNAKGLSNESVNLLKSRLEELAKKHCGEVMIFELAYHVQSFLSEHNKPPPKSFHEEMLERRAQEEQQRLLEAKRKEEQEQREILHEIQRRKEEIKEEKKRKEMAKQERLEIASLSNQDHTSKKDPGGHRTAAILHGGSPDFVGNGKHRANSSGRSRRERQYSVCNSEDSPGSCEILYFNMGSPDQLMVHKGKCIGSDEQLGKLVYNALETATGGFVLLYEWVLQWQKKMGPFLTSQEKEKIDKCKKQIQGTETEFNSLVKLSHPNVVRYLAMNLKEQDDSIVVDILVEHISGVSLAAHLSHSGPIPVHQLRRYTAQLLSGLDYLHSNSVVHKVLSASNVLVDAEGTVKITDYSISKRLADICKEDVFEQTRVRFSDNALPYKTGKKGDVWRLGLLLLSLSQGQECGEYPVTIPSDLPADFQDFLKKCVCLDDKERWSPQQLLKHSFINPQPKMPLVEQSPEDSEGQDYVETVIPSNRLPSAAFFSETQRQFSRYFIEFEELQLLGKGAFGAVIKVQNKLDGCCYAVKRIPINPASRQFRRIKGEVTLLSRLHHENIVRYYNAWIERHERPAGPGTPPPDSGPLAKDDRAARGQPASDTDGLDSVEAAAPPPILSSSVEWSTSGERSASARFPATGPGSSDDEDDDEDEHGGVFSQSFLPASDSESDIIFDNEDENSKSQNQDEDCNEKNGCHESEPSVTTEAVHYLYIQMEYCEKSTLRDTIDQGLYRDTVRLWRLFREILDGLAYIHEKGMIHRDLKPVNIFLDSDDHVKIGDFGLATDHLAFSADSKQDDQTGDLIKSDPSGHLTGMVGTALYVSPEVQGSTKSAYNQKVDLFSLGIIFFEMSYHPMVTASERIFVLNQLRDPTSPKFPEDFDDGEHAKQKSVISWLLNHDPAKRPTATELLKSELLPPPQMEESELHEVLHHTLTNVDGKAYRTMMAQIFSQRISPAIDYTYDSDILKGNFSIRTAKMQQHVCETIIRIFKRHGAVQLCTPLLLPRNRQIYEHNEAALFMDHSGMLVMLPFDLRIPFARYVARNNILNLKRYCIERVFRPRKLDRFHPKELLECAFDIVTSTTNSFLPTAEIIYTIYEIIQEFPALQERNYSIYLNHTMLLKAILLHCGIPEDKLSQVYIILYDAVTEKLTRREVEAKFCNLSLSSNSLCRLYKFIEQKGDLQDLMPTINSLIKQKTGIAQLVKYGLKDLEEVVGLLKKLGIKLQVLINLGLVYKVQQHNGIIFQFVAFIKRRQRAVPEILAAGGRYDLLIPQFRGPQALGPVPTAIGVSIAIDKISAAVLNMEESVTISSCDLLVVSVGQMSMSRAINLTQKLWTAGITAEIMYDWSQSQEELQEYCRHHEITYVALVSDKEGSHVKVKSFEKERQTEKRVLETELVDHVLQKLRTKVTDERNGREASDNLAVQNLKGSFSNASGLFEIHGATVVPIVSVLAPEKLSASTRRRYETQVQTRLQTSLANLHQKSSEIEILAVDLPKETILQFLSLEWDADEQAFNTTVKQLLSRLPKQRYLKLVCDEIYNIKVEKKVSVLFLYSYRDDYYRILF
For orientation: TR-FRET usually uses a lanthanide donor and a delayed reading to cut background.

Take `CNC(=O)[C@]1(C)CC[C@@H](Nc2ncc3c(Br)nn(-c4cc(O)c5c(c4)OCC(=O)N5C)c3n2)C1` [(1R,3R)-3-[[3-bromo-1-(5-hydroxy-4-methyl-3-oxo-1,4-benzoxazin-7-yl)pyrazolo[3,4-d]pyrimidin-6-yl]amino]-N,1-dimethyl-cyclo-pentanecarboxamide]: the pIC50 was 6.70 to 7.60. With `CNC(=O)[C@]1(C)CC[C@@H](Nc2ncc3c(Br)nn(-c4cc(OC)c5c(c4)OCC(=O)N5C)c3n2)C1` [(1R,3R)-3-[[3-bromo-1-(5-methoxy-4-methyl-3-oxo-1,4-benzoxazin-7-yl)pyrazolo[3,4-d]pyrimidin-6-yl]amino]-N,1-dimethyl-cyclopentanecarboxamide], the pIC50 was above 7.60. For `CCS(=O)(=O)N1Cc2cc(-n3nc(Br)c4cnc(N[C@@H]5CC[C@@](C)(C(=O)NC)C5)nc43)cnc2C1` [(1R,3R)-3-[[3-bromo-1-(6-ethylsulfonyl-5,7-dihydropyrrolo[3,4-b]pyridin-3-yl)pyrazolo[3,4-d]pyrimidin-6-yl]amino]-N,1-dimethyl-cyclopentanecarboxamide] the value was 6.70 to 7.60; for `CNC(=O)[C@]1(C)CC[C@@H](Nc2ncc3c(Br)nn(-c4ccc(-c5cnccn5)nc4)c3n2)C1` [(1R,3R)-3-[[3-bromo-1-(6-pyrazin-2-yl-3-pyridyl)pyrazolo[3,4-d]pyrimidin-6-yl]amino]-N,1-dimethyl-cyclopentane-carboxamide], 6.70 to 7.60. `CNC(=O)[C@@H]1CC[C@@H](Nc2ncc3c(Br)nn(-c4ccc5ncccc5c4)c3n2)C1` [(1R,3R)-3-[[3-bromo-1-(6-quinolyl)pyrazolo[3,4-d]pyrimidin-6-yl]amino]-N-methyl-cyclopentanecarboxamide]: the pIC50 was 6.70 to 7.60. For `CNC(=O)[C@@H]1CC[C@@H](Nc2ncc3c(Br)nn(-c4cc(C#N)c5c(c4)CCO5)c3n2)C1` [(1R,3R)-3-[[3-bromo-1-(7-cyano-2,3-dihydro-benzofuran-5-yl)pyrazolo[3,4-d]pyrimidin-6-yl]amino]-N-methyl-cyclopentanecarboxamide] the value was 6.70 to 7.60; for `CNC(=O)[C@]1(C)CC[C@@H](Nc2ncc3c(Br)nn(-c4cc(F)c5c(c4)CCO5)c3n2)C1` [(1R,3R)-3-[[3-bromo-1-(7-fluoro-2,3-dihydro-benzofuran-5-yl)pyrazolo[3,4-d]pyrimidin-6-yl]amino]-N,1-dimethyl-cyclopentane-carboxamide], 6.70 to 7.60. For `CNC(=O)[C@]1(C)CC[C@@H](Nc2ncc3c(Br)nn(-c4cc(C#N)c5nc(C)ccc5c4)c3n2)C1` [(1R,3R)-3-[[3-bromo-1-(8-cyano-2-methyl-6-quinolyl)pyrazolo[3,4-d]pyrimidin-6-yl]amino]-N,1-dimethyl-cyclopentane-carboxamide] the value was above 7.60; for `CNC(=O)[C@@H]1CC[C@@H](Nc2ncc3c(Br)nn(-c4cnc5c(C#N)cccc5c4)c3n2)C1` [(1R,3R)-3-[[3-bromo-1-(8-cyano-3-quinolyl)pyrazolo[3,4-d]pyrimidin-6-yl]amino]-N-methyl-cyclopentanecarboxamide], 6.70 to 7.60; for `CNC(=O)[C@]1(C)CC[C@@H](Nc2ncc3c(Br)nn(-c4cc(F)c5nc(C)ccc5c4)c3n2)C1` [(1R,3R)-3-[[3-bromo-1-(8-fluoro-2-methyl-6-quinolyl)pyrazolo[3,4-d]pyrimidin-6-yl]amino]-N,1-dimethyl-cyclopentane-carboxamide], above 7.60.

For the compound `CNC(=O)[C@]1(C)CC[C@@H](Nc2ncc3c(Br)nn(-c4cc(F)c5nc(C)cc(O)c5c4)c3n2)C1` [(1R,3R)-3-[[3-bromo-1-(8-fluoro-4-hydroxy-2-methyl-6-quinolyl)pyrazolo[3,4-d]pyrimidin-6-yl]amino]-N,1-dimethyl-cyclopentanecarboxamide], the pIC50 was 6.70 to 7.60. For `CNC(=O)[C@]1(CC(F)F)CC[C@@H](Nc2ncc3c(Br)nn(-c4cc(F)c5ncccc5c4)c3n2)C1` [(1R,3R)-3-[[3-bromo-1-(8-fluoro-6-quinolyl)pyrazolo[3,4-d]pyrimidin-6-yl]amino]-1-(2,2-difluoroethyl)-N-methyl-cyclopentane-carboxamide] the value was above 7.60; for `CNC(=O)[C@]1(COC)CC[C@@H](Nc2ncc3c(Br)nn(-c4cc(F)c5ncccc5c4)c3n2)C1` [(1R,3R)-3-[[3-bromo-1-(8-fluoro-6-quinolyl)pyrazolo[3,4-d]pyrimidin-6-yl]amino]-1-(methoxymethyl)-N-methyl-cyclopentane-carboxamide], above 7.60; for `CNC(=O)[C@]1(CC(=O)N(C)C)CC[C@@H](Nc2ncc3c(Br)nn(-c4cc(F)c5ncccc5c4)c3n2)C1` [(1R,3R)-3-[[3-bromo-1-(8-fluoro-6-quinolyl)pyrazolo[3,4-d]pyrimidin-6-yl]amino]-1-[2-(dimethylamino)-2-oxo-ethyl]-N-methyl-cyclopentanecarboxamide], above 7.60. For `CC[C@@]1(C(=O)NC)CC[C@@H](Nc2ncc3c(Br)nn(-c4cc(F)c5ncccc5c4)c3n2)C1` [(1R,3R)-3-[[3-bromo-1-(8-fluoro-6-quinolyl)pyrazolo[3,4-d]pyrimidin-6-yl]amino]-1-ethyl-N-methyl-cyclopentanecarboxamide] the value was above 7.60; for `NC(=O)C1(NC(=O)[C@@H]2CC[C@@H](Nc3ncc4c(Br)nn(-c5cc(F)c6ncccc6c5)c4n3)C2)CCC1` [(1R,3R)-3-[[3-bromo-1-(8-fluoro-6-quinolyl)pyrazolo[3,4-d]pyrimidin-6-yl]amino]-N-(1-carbamoylcyclobutyl)cyclopentane-carboxamide], 6.70 to 7.60.

Turning to `NC(=O)C1(NC(=O)[C@@H]2CC[C@@H](Nc3ncc4c(Br)nn(-c5cc(F)c6ncccc6c5)c4n3)C2)CC1` [(1R,3R)-3-[[3-bromo-1-(8-fluoro-6-quinolyl)pyrazolo[3,4-d]pyrimidin-6-yl]amino]-N-(1-carbamoylcyclopropyl)cyclopentane-carboxamide], the pIC50 was 6.70 to 7.60. As to `Cn1cccc(NC(=O)[C@@H]2CC[C@@H](Nc3ncc4c(Br)nn(-c5cc(F)c6ncccc6c5)c4n3)C2)c1=O` [(1R,3R)-3-[[3-bromo-1-(8-fluoro-6-quinolyl)pyrazolo[3,4-d]pyrimidin-6-yl]amino]-N-(1-methyl-2-oxo-3-pyridyl)cyclopentane-carboxamide], the pIC50 was 6.70 to 7.60. For `CN(C(=O)[C@]1(C)CC[C@@H](Nc2ncc3c(Br)nn(-c4cc(F)c5ncccc5c4)c3n2)C1)C(C)(C)CO` [(1R,3R)-3-[[3-bromo-1-(8-fluoro-6-quinolyl)pyrazolo[3,4-d]pyrimidin-6-yl]amino]-N-(2-hydroxy-1,1-dimethyl-ethyl)-N,1-dimethyl-cyclopentanecarboxamide], the pIC50 is above 7.60. For `CN(CC(C)(C)O)C(=O)[C@]1(C)CC[C@@H](Nc2ncc3c(Br)nn(-c4cc(F)c5ncccc5c4)c3n2)C1` [(1R,3R)-3-[[3-bromo-1-(8-fluoro-6-quinolyl)pyrazolo[3,4-d]pyrimidin-6-yl]amino]-N-(2-hydroxy-2-methyl-propyl)-N,1-dimethyl-cyclopentanecarboxamide] the value was above 7.60; for `C[C@@]1(C(=O)NCCO)CC[C@@H](Nc2ncc3c(Br)nn(-c4cc(F)c5ncccc5c4)c3n2)C1` [(1R,3R)-3-[[3-bromo-1-(8-fluoro-6-quinolyl)pyrazolo[3,4-d]pyrimidin-6-yl]amino]-N-(2-hydroxyethyl)-1-methyl-cyclopentane-carboxamide], above 7.60; for `COC(C)(C)CN(C)C(=O)[C@]1(C)CC[C@@H](Nc2ncc3c(Br)nn(-c4cc(F)c5ncccc5c4)c3n2)C1` [(1R,3R)-3-[[3-bromo-1-(8-fluoro-6-quinolyl)pyrazolo[3,4-d]pyrimidin-6-yl]amino]-N-(2-methoxy-2-methyl-propyl)-N,1-dimethyl-cyclopentanecarboxamide], above 7.60. `COCCN(C)C(=O)[C@]1(C)CC[C@@H](Nc2ncc3c(Br)nn(-c4cc(F)c5ncccc5c4)c3n2)C1` [(1R,3R)-3-[[3-bromo-1-(8-fluoro-6-quinolyl)pyrazolo[3,4-d]pyrimidin-6-yl]amino]-N-(2-methoxyethyl)-N,1-dimethyl-cyclopentane-carboxamide]: the pIC50 is above 7.60.

With `CN(C)C(=O)C1(NC(=O)[C@@H]2CC[C@@H](Nc3ncc4c(Br)nn(-c5cc(F)c6ncccc6c5)c4n3)C2)CC1` [(1R,3R)-3-[[3-bromo-1-(8-fluoro-6-quinolyl)pyrazolo[3,4-d]pyrimidin-6-yl]amino]-N-[1-(dimethylcarbamoyl)cyclopropyl]cyclo-pentanecarboxamide], the pIC50 is 6.70 to 7.60. Take `C[C@@]1(C(=O)NCC2(O)CC2)CC[C@@H](Nc2ncc3c(Br)nn(-c4cc(F)c5ncccc5c4)c3n2)C1` [(1R,3R)-3-[[3-bromo-1-(8-fluoro-6-quinolyl)pyrazolo[3,4-d]pyrimidin-6-yl]amino]-N-[(1-hydroxycyclopropyl)methyl]-1-methyl-cyclopentanecarboxamide]: the pIC50 is above 7.60. For `CCNC(=O)[C@]1(C)CC[C@@H](Nc2ncc3c(Br)nn(-c4cc(F)c5ncccc5c4)c3n2)C1` [(1R,3R)-3-[[3-bromo-1-(8-fluoro-6-quinolyl)pyrazolo[3,4-d]pyrimidin-6-yl]amino]-N-ethyl-1-methyl-cyclopentanecarboxamide] the value was above 7.60; for `CCN(C)C(=O)[C@]1(C)CC[C@@H](Nc2ncc3c(Br)nn(-c4cc(F)c5ncccc5c4)c3n2)C1` [(1R,3R)-3-[[3-bromo-1-(8-fluoro-6-quinolyl)pyrazolo[3,4-d]pyrimidin-6-yl]amino]-N-ethyl-N,1-dimethyl-cyclopentanecarboxamide], above 7.60; for `CCNC(=O)[C@@H]1CC[C@@H](Nc2ncc3c(Br)nn(-c4cc(F)c5ncccc5c4)c3n2)C1` [(1R,3R)-3-[[3-bromo-1-(8-fluoro-6-quinolyl)pyrazolo[3,4-d]pyrimidin-6-yl]amino]-N-ethyl-cyclopentanecarboxamide], 6.70 to 7.60.

For `CC(C)NC(=O)[C@]1(C)CC[C@@H](Nc2ncc3c(Br)nn(-c4cc(F)c5ncccc5c4)c3n2)C1` [(1R,3R)-3-[[3-bromo-1-(8-fluoro-6-quinolyl)pyrazolo[3,4-d]pyrimidin-6-yl]amino]-N-isopropyl-1-methyl-cyclopentanecarboxamide], the pIC50 is above 7.60.
